The assay concerns Hep G2. In words: WST-1 viability assay, Hep G2 cells. It counts as cell-based, human. Conditions: Hep G2, 72 h incubation, WST-1, four replicates. As to the method: Based on the novelty of the IMBcat compound, we aimed to evaluate its in vitro cytotoxicity in selected model cell lines as well as to determine the toxicity of the IBMcat enantiomers, since both the chemical structure and chirality of compounds could play a role in their bioactivity (Table 2). The cytotoxic profile of the IBMcat was determined by a WST-1 viability assay after 72-h treatment. For this purpose, cell lines derived from distinct tissues, often affected by NPSs, were chosen, i.e., cells of kidney, hepatic, neural, urinary, and intestinal origin as well as keratinocytes and primary fibroblasts (HEK 293T, Hep G2, HMC-3, SH-SY5Y, 5637, CaCo-2, HaCaT, MRC-5, and BJ, respectively). The cytotoxicity of IBMcat and its enantiomers was concentration- and cell-line dependent, the IC50 values, which were in the micromolar range, are given in Table 2. […] This was followed by embryonic kidney cells HEK 293T (immortalized), in which the toxicity ranged between a concentration of 123 and 192 µM.
In this study, the following cell lines were used: HEK 293T, Hep G2, HMC-3, SH-SY5Y, 5637, CaCo-2, HaCaT, MRC-5, BJ, and L929. […] The selected cell lines were chosen so that not only primary noncancerous cells are evaluated but also cells derived from tissues, which are the most often affected by novel synthetic drugs, i.e., kidney, liver, urinary bladder, and nervous tissue. […]
The cytotoxicity of IBMCat was evaluated in vitro by using a WST-1 viability assay (Sigma-Aldrich, Saint Louis, MO, USA) based on the transformation of a tetrazolium salt into colored formazan in metabolically active cells. […] After 72 h of additional incubation of the cells, their viability was determined by WST-1. […] The cells were incubated for 2 h, after which absorbance of the raised formazan was measured spectrophotometrically at 450 nm (reference wavelength of 630 nm) using a UV-Vis spectrometer (Bio-Rad Laboratories, Hercules, CA, USA). […] The half-maximal inhibitory concentrations (IC50) were calculated from the measured dose–response curves by AAT Bioquest.

Structures are written as SMILES. Counter-ions that a name gives are not always drawn.

`CNC(C)C(=O)c1ccc(CC(C)C)cc1.Cl` (stereo not drawn) [IBMcat, 4-isobutylmethcathinone hydrochloride]: the midpoint of inhibition (Homo sapiens, HepG2), the IC50, lay at 52 ± 7 µM. `CN[C@H](C)C(=O)c1ccc(CC(C)C)cc1` [R-IBMCat] yielded an IC50 of 49 ± 1 µM. `CN[C@@H](C)C(=O)c1ccc(CC(C)C)cc1` [S-IBMCat, (S)-4-isobutylmethcathinone hydrochloride] displayed an IC50 (Homo sapiens, HepG2) of 46 ± 9 µM.
